One assay has as its target EGFR del19/T790M/C797S (Homo sapiens, UniProt P00533, C797S/DEL746-750/T790M). As to the kind of experiment: Biochemical EGFR kinase assay (Lance Ultra TR-FRET), triple mutant del19/T790M/C797S. The procedure, abridged: (§1)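 Step 1: compound in kinase buffer, 0.003–10 μM. Step 2: kinase reaction 1 h at room temperature. Step 4: TR-FRET read at 615/665 nm; IC50 calculated.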

A further assay deals with EGFR L858R/T790M/C797S (Homo sapiens, UniProt P00533, C797S/L858R/T790M). As to the kind of experiment: Biochemical EGFR kinase assay (Lance Ultra TR-FRET), triple mutant L858R/T790M/C797S. The procedure, abridged: as §1
In a further assay the target is EGFR del19/C797S (Homo sapiens, UniProt P00533, C797S/DEL746-750). As to the kind of experiment: Biochemical EGFR kinase assay (Lance Ultra TR-FRET), double mutant del19/C797S. The procedure, abridged:
as §1

In the next assay the target is EGFR L858R/C797S (Homo sapiens, UniProt P00533, C797S/L858R). As to the kind of experiment: Biochemical EGFR kinase assay (Lance Ultra TR-FRET), double mutant L858R/C797S. The procedure, abridged: as §1
A further assay has as its target EGFR wildtype (Homo sapiens, UniProt P00533). As to the kind of experiment: Biochemical EGFR kinase assay (Lance Ultra TR-FRET), wildtype. The procedure, abridged: as §1
Where [1] appears, read: IC50 del19/T790M/C797S (nM) 100 μM ATP, 100 μM ATP.
[2] abbreviates: Km ATP, read-out: IC50 del19/T790M/C797S (nM) Km ATP.
[3] abbreviates: IC50 L858R/T790M/C797S (nM) 100 μM ATP, 100 μM ATP.
Setting [4] is: Km ATP, read-out: IC50 L858R/T790M/C797S (nM) Km ATP.
The mark [5] stands for this setting: IC50 del19/C797S (nM) 100 μM ATP, 100 μM ATP.
Setting [6] is: Km ATP, read-out: IC50 del19/C797S (nM) Km ATP.
The mark [7] stands for this setting: IC50 L858R/C797S (nM) 100 μM ATP, 100 μM ATP.
The mark [8] stands for this setting: Km ATP, read-out: IC50 L858R/C797S (nM) Km ATP.
Setting [9] is: IC50 WT (nM) 100 μM ATP, 100 μM ATP.
The mark [10] stands for this setting: Km ATP, read-out: IC50 WT (nM) Km ATP.
[11] abbreviates: ATP at Km, read-out: IC50 del19/T790M/C797S, Km ATP.
[12] abbreviates: ATP at Km, read-out: IC50 L858R/T790M/C797S, Km ATP.
Where [13] appears, read: ATP at Km, read-out: IC50 del19/C797S, Km ATP.
Setting [14] is: ATP at Km, read-out: IC50 L858R/C797S, Km ATP.
The mark [15] stands for this setting: ATP at Km, read-out: IC50 WT, Km ATP.
Setting [16] is: IC50 del19/T790M/C797S, 100 μM ATP.
[17] abbreviates: IC50 L858R/T790M/C797S, 100 μM ATP.

Like-named read-outs stand apart in the source and are kept apart here. A value given as a limit tells only on which side of the number the result lay.

EGFR del19/C797S, sequence (P00533 with tags, fused parts or gaps DEL746-750/C797S): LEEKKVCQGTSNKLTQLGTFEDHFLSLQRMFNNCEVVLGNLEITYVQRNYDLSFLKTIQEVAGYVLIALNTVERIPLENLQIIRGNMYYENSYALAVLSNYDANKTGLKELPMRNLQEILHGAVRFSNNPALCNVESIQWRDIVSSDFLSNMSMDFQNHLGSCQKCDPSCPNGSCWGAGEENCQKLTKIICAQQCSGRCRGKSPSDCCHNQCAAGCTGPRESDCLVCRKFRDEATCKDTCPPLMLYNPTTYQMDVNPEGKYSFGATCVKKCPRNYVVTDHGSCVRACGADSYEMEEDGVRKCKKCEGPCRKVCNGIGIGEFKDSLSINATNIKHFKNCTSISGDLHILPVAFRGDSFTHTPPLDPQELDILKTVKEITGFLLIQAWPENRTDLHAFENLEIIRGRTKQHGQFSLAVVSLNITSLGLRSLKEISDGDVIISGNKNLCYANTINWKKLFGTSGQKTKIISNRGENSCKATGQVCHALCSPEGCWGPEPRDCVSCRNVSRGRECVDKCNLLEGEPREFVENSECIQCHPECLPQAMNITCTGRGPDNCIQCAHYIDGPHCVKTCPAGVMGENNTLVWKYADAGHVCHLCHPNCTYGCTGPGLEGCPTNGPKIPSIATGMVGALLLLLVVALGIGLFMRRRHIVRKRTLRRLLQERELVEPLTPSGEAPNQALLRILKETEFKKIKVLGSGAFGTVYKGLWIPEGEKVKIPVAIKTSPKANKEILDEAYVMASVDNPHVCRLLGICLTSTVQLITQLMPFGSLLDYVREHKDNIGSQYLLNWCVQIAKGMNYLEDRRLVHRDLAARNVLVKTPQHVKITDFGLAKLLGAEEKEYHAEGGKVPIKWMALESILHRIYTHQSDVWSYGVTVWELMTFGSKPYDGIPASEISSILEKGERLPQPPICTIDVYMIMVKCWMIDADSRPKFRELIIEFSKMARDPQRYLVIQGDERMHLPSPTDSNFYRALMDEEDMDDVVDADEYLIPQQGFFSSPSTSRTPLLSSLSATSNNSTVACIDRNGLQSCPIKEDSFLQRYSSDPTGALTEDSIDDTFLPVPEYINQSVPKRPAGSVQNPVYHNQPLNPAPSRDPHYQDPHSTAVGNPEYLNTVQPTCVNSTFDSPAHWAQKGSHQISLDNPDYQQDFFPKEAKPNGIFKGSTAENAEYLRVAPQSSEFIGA
EGFR wildtype, sequence (P00533 25-1210): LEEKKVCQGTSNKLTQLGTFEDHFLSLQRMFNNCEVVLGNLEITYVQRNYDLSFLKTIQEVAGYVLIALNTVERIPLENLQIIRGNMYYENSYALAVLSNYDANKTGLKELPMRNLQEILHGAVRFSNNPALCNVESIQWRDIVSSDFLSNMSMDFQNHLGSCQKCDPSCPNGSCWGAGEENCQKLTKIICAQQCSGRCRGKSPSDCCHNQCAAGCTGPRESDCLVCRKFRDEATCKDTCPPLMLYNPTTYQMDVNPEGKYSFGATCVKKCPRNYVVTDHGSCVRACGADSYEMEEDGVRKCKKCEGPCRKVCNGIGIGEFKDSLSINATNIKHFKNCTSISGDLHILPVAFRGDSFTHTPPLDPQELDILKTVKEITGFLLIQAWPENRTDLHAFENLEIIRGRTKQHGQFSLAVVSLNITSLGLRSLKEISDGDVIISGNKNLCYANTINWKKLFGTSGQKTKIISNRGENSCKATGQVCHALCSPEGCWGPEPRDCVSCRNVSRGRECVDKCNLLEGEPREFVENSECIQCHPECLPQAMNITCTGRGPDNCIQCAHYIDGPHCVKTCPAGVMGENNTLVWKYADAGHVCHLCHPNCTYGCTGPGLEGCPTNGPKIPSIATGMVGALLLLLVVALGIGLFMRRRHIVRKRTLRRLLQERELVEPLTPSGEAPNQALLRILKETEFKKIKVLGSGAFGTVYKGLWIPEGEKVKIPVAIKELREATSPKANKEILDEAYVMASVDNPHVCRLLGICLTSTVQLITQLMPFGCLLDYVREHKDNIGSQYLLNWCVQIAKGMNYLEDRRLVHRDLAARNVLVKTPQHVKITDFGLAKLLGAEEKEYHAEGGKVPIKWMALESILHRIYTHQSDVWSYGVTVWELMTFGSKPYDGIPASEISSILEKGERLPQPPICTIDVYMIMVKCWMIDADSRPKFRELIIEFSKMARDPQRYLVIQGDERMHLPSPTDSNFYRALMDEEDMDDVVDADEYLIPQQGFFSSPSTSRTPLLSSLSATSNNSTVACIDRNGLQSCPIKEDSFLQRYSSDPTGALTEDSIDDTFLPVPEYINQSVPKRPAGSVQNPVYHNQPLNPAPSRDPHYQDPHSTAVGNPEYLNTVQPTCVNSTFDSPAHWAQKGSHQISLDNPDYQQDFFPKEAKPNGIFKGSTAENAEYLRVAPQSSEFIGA
EGFR L858R/C797S, sequence (P00533 25-1210 C797S/L858R): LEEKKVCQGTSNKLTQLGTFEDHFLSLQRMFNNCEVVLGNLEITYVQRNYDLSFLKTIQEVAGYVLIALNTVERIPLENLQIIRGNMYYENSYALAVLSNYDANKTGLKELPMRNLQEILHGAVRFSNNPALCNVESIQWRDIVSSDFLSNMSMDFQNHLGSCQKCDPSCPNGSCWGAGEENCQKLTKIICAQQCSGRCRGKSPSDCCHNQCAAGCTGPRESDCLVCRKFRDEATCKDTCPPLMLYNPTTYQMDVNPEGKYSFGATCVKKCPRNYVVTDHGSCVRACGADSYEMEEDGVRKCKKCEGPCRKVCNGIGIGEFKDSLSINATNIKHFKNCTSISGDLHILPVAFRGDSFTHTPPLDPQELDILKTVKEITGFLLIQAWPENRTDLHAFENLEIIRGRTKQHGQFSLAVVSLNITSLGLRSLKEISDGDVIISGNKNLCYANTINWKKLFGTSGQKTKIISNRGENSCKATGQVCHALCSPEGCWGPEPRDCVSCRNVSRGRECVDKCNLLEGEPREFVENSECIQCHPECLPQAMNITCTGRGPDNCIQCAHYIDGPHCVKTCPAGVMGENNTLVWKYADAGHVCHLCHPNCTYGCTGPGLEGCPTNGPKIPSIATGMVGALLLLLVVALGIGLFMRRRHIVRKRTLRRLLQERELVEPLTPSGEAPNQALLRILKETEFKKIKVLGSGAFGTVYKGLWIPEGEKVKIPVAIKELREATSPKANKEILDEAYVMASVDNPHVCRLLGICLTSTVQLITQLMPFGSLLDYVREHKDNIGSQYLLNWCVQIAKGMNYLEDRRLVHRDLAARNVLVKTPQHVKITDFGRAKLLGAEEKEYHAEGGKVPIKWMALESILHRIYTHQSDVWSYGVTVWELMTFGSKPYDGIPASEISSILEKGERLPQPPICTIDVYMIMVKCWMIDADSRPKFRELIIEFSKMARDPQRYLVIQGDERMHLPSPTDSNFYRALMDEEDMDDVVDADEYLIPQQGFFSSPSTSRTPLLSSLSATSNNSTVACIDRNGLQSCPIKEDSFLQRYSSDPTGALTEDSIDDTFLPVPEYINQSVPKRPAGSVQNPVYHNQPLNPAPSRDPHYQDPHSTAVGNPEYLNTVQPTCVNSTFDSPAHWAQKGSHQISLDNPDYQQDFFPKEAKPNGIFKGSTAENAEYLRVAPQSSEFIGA
EGFR L858R/T790M/C797S, sequence (P00533 25-1210 T790M/C797S/L858R): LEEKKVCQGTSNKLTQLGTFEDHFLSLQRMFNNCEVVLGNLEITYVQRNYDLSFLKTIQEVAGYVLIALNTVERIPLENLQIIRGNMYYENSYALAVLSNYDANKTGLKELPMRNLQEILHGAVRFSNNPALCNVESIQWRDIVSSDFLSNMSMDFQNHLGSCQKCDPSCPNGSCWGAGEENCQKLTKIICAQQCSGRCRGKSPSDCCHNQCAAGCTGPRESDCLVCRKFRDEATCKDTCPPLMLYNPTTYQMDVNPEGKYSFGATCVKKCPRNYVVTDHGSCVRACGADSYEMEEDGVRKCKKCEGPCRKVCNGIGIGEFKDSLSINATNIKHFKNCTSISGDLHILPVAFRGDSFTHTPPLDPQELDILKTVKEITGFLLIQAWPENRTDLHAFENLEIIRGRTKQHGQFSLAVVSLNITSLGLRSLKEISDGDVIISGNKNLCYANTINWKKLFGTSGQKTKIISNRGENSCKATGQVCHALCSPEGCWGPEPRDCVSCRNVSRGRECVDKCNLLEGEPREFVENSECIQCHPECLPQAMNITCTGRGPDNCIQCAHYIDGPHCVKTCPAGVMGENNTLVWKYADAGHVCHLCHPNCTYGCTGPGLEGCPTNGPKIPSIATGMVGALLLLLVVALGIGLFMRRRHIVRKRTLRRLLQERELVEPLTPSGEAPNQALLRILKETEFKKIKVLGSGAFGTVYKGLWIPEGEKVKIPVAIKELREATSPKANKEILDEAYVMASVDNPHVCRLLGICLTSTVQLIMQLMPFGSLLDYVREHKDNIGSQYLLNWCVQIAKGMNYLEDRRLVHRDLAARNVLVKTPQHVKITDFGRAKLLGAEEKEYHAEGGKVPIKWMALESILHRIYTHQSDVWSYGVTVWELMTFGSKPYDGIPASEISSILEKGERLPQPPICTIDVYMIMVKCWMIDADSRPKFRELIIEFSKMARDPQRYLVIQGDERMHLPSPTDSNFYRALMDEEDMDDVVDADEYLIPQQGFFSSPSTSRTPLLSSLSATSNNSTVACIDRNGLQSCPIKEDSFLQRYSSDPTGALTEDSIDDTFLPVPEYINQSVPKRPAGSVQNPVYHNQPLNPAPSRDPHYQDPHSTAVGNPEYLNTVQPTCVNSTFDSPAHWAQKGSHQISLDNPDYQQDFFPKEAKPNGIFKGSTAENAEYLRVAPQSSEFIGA

`C[C@]1(O)CC[C@@H](Nc2cc(Nc3ccnc(-c4cnn(S(=O)(=O)C5CC5)c4)n3)ncc2-c2ccc(N3CCCC3)cn2)CC1` [Example 80, (1s,4s)-4-((6′-((2-(1-(Cyclopropylsulfonyl)-1H-pyrazol-4-yl)pyrimidin-4-yl)amino)-5-(pyrrolidin-1-yl)-[2,3′-bipyridin]-4′-yl)amino)-1-methylcyclohexan-1-ol]: the IC50 against EGFR del19/T790M/C797S (setting [1]) stood at 6.2 nM; on EGFR del19/T790M/C797S (setting [2]) it was 3.8 nM; at EGFR L858R/T790M/C797S (setting [3]), 6.3 nM; at EGFR L858R/T790M/C797S (setting [4]), 2.8 nM; against EGFR del19/C797S (setting [5]) it was 8.4 nM; at EGFR del19/C797S (setting [6]) it was 2.5 nM. Further, the IC50 came out at 11.1 nM on EGFR L858R/C797S (setting [7]), 2.3 nM at EGFR L858R/C797S (setting [8]), 4410 nM at EGFR wildtype (setting [9]) and 11.4 nM on EGFR wildtype (setting [10]).

As to `CN1CCC(Oc2ccc(-c3cnc(Nc4ccnc(-c5cnn(S(=O)(=O)C6CC6)c5)n4)cc3NC3CC(F)(F)C3)nc2)CC1` [Example 140, N^6′-(2-(1-(Cyclopropylsulfonyl)-1H-pyrazol-4-yl)pyrimidin-4-yl)-N^4′-(3,3-difluorocyclobutyl)-5-((1-methylpiperidin-4-yl)oxy)-[2,3′-bipyridine]-4′,6′-diamine], the IC50 was determined as 0.2 nM on EGFR del19/T790M/C797S (setting [2]); 0.2 nM at EGFR L858R/T790M/C797S (setting [4]); 8.3 nM on EGFR del19/C797S (setting [6]); 15.1 nM at EGFR L858R/C797S (setting [8]); 67.6 nM on EGFR wildtype (setting [10]).

In the case of `O=S(=O)(C1CC1)n1cc(-c2nccc(Nc3cc(N[C@H]4CC[C@@H](NCCF)CC4)c(-c4ccc(CO)cn4)cn3)n2)cn1` [Example 21, (6′-((2-(1-(Cyclopropylsulfonyl)-1H-pyrazol-4-yl)pyrimidin-4-yl)amino)-4′-(((1s,4s)-4-((2-fluoroethyl)amino)cyclohexyl)amino)-[2,3′-bipyridin]-5-yl)methanol], the IC50 stood at 0.3 nM against EGFR del19/T790M/C797S (setting [1]); 0.3 nM at EGFR del19/T790M/C797S (setting [2]); 0.6 nM on EGFR L858R/T790M/C797S (setting [3]); 0.3 nM on EGFR L858R/T790M/C797S (setting [4]); 1.2 nM at EGFR del19/C797S (setting [5]); 0.5 nM on EGFR del19/C797S (setting [6]). Besides, the IC50 at EGFR L858R/C797S (setting [7]) is 11.6 nM; at EGFR L858R/C797S (setting [8]) it was 1 nM; at EGFR wildtype (setting [9]) it was 5570 nM; on EGFR wildtype (setting [10]), 6.3 nM.

Regarding `C[C@]1(O)CC[C@@H](Nc2cc(Nc3ccnc(-c4cnn(S(=O)(=O)C5CC5)c4)n3)ncc2-c2ccc(CCC(F)(F)F)cn2)CC1` [Example 263, (1s,4s)-4-((6′-((2-(1-(Cyclopropylsulfonyl)-1H-pyrazol-4-yl)pyrimidin-4-yl)amino)-5-(3,3,3-trifluoropropyl)-[2,3′-bipyridin]-4′-yl)amino)-1-methylcyclohexan-1-ol], the IC50 at EGFR del19/T790M/C797S (setting [11]) is 8 nM; on EGFR L858R/T790M/C797S (setting [12]) it was 3.4 nM; on EGFR del19/C797S (setting [13]), 23.1 nM; on EGFR L858R/C797S (setting [14]), 0.9 nM; at EGFR wildtype (setting [15]), 14.1 nM.

`CN1CCC(Oc2cnc(-c3cnc(Nc4ccnc(-c5cnn(S(=O)(=O)C6CC6)c5)n4)cc3N[C@H]3CC[C@@H](F)CC3)cn2)CC1` [Example 144, N^2-(2-(1-(Cyclopropylsulfonyl)-1H-pyrazol-4-yl)pyrimidin-4-yl)-N^4-((1s,4s)-4-fluorocyclohexyl)-5-(5-((1-methylpiperidin-4-yl)oxy)pyrazin-2-yl)pyridine-2,4-diamine]: the IC50 on EGFR del19/T790M/C797S (setting [2]) stood at 0.3 nM; at EGFR L858R/T790M/C797S (setting [4]) it was 0.1 nM; on EGFR del19/C797S (setting [6]), 2.2 nM; at EGFR L858R/C797S (setting [8]), 1.2 nM; at EGFR wildtype (setting [10]), 26.3 nM.

For `C[C@]1(O)CC[C@@H](Nc2cc(Nc3ccnc(-c4cnn(S(=O)(=O)C5CC5)c4)n3)ncc2-c2ccc(N3CCCCC3)cn2)CC1` [Example 54, (1s,4s)-4-((6′-((2-(1-(Cyclopropylsulfonyl)-1H-pyrazol-4-yl)pyrimidin-4-yl)amino)-5-(piperidin-1-yl)-[2,3′-bipyridin]-4′-yl)amino)-1-methylcyclohexan-1-ol], the IC50 worked out at 11.4 nM against EGFR del19/T790M/C797S (setting [1]); 12.5 nM on EGFR del19/T790M/C797S (setting [2]); 5.1 nM against EGFR L858R/T790M/C797S (setting [3]); 9.7 nM on EGFR del19/C797S (setting [5]); 5.6 nM at EGFR del19/C797S (setting [6]); 7.3 nM against EGFR L858R/C797S (setting [7]). For the same compound, the IC50 on EGFR L858R/C797S (setting [8]) is 1.4 nM; at EGFR wildtype (setting [9]), 5840 nM; at EGFR wildtype (setting [10]) it was 9.2 nM.

With `O=S(=O)(C1CC1)n1cc(-c2nccc(Nc3cc(NC4CCC(F)CC4)c(-c4ccc(N5CCC(F)(F)CC5)nn4)cn3)n2)cn1` (centres unmarked) [Example 267, N^2-(2-(1-(Cyclopropylsulfonyl)-1H-pyrazol-4-yl)pyrimidin-4-yl)-5-(6-(4,4-difluoropiperidin-1-yl)pyridazin-3-yl)-N^4-(4-fluorocyclohexyl)pyridine-2,4-diamine], the IC50 at EGFR del19/T790M/C797S (setting [11]) amounted to 15.4 nM; at EGFR L858R/T790M/C797S (setting [12]), 21.7 nM; on EGFR del19/C797S (setting [13]), 82.1 nM; at EGFR L858R/C797S (setting [14]), 357 nM; at EGFR wildtype (setting [15]), 2910 nM.

Take `CC(C)(O)c1ccc(-c2cnc(Nc3ccnc(-c4cnn(S(=O)(=O)C5CC5)c4)n3)cc2NC2CCCN(CCF)C2)nc1` (centres unmarked) [Example 177, 2-(6′-((2-(1-(Cyclopropylsulfonyl)-1H-pyrazol-4-yl)pyrimidin-4-yl)amino)-4′-((1-(2-fluoroethyl)piperidin-3-yl)amino)-[2,3′-bipyridin]-5-yl)propan-2-ol]: the IC50 was 0.9 nM on EGFR del19/T790M/C797S (setting [11]); 1.9 nM on EGFR L858R/T790M/C797S (setting [12]); 3.7 nM at EGFR del19/C797S (setting [13]); 9 nM at EGFR L858R/C797S (setting [14]); 40.5 nM on EGFR wildtype (setting [15]).

As to `O=S(=O)(C1CC1)n1cc(-c2nccc(Nc3cc(N[C@H]4CC[C@@H](CO)CC4)c(-c4cc(NC5CC(F)(F)C5)ccn4)cn3)n2)cn1` [Example 214, ((1s,4s)-4-((6′-((2-(1-(Cyclopropylsulfonyl)-1H-pyrazol-4-yl)pyrimidin-4-yl)amino)-4-((3,3-difluorocyclobutyl)amino)-[2,3′-bipyridin]-4′-yl)amino)cyclohexyl)methanol], the IC50 was found to be 3 nM on EGFR del19/T790M/C797S (setting [11]); 5.6 nM against EGFR del19/T790M/C797S (setting [16]); 3.5 nM at EGFR L858R/T790M/C797S (setting [12]); 4.5 nM against EGFR L858R/T790M/C797S (setting [17]); 1.8 nM at EGFR del19/C797S (setting [13]); 8 nM at EGFR del19/C797S (IC50 del19/C797S, 100 μM ATP). Further, the IC50 is 2.2 nM on EGFR L858R/C797S (setting [14]); 6.9 nM against EGFR L858R/C797S (IC50 L858R/C797S, 100 μM ATP); 4.5 nM at EGFR wildtype (setting [15]); 711 nM on EGFR wildtype (IC50 WT, 100 μM ATP).

For `Cc1ccc(-c2cnc(Nc3ccnc(-c4cnn(S(=O)(=O)C5CC5)c4)n3)cc2N[C@H]2CC[C@@](C)(O)CC2)nc1` [Example 8, (1s,4s)-4-((6′-((2-(1-(Cyclopropylsulfonyl)-1H-pyrazol-4-yl)pyrimidin-4-yl)amino)-5-methyl-[2,3′-bipyridin]-4′-yl)amino)-1-methylcyclohexan-1-ol], the IC50 against EGFR del19/T790M/C797S (setting [1]) amounted to 0.2 nM; on EGFR del19/T790M/C797S (setting [2]), 0.4 nM; at EGFR L858R/T790M/C797S (setting [3]), 0.2 nM; on EGFR L858R/T790M/C797S (setting [4]) it was 0.1 nM; against EGFR del19/C797S (setting [5]), 0.7 nM; at EGFR del19/C797S (setting [6]) it was 0.4 nM. Besides, the IC50 at EGFR L858R/C797S (setting [7]) was determined as 6.3 nM; at EGFR L858R/C797S (setting [8]) it was 0.4 nM; against EGFR wildtype (setting [9]), 8890 nM; at EGFR wildtype (setting [10]) it was 1 nM.

For the compound `CN(C)S(=O)(=O)c1ccc(-c2cnc(Nc3ccnc(-c4cnn(S(=O)(=O)C5CC5)c4)n3)cc2N[C@H]2CC[C@@H](CO)CC2)nc1` [Example 166, 6′-((2-(1-(Cyclopropylsulfonyl)-1H-pyrazol-4-yl)pyrimidin-4-yl)amino)-4′-(((1s,4s)-4-(hydroxymethyl)cyclohexyl)amino)-N,N-dimethyl-[2,3′-bipyridine]-5-sulfonamide], the IC50 at EGFR del19/T790M/C797S (setting [11]) is 1.9 nM; against EGFR del19/T790M/C797S (setting [16]), 5.1 nM; at EGFR L858R/T790M/C797S (setting [17]), 0.6 nM; on EGFR del19/C797S (setting [13]) it was 1.2 nM; on EGFR del19/C797S (IC50 del19/C797S, 100 μM ATP), 2.4 nM; at EGFR L858R/C797S (setting [14]) it was 1.1 nM. Further, the IC50 at EGFR L858R/C797S (IC50 L858R/C797S, 100 μM ATP) is 2.4 nM; on EGFR wildtype (setting [15]), 2 nM; at EGFR wildtype (IC50 WT, 100 μM ATP), > 10000 nM.
